Values of other authors as cited in US11045444B2, “Composition and method for promoting eyelash and eyebrow growth exclusively containing naturally sourced ingredients” (Plume Cosmetics Inc., priority 2016, dated 2021).

## C=C[C@@]1(C)CC(=O)[C@]2(O)[C@@]3(C)[C@@H](O)CCC(C)(C)[C@@H]3[C@H](O)[C@H](OC(C)=O)[C@@]2(C)O1 [forskolin]
  solubility in water: approximately 0.001%
